Measured values taken from publication PMC8286840, “Identifying SARS-CoV-2 antiviral compounds by screening for small molecule inhibitors of Nsp3 papain-like protease” (Biochemical Journal, 2021).
Counter-ions that a name gives are not always drawn. Like-named read-outs stand apart in the source and are kept apart here.

Columns and labels:
[1] = biological target: T1, SARS-CoV-2 PLpro (nsp3 1564–1878) (Severe acute respiratory syndrome coronavirus 2, UniProt P0DTD1); assay: biochemical; design: FRET-quenched peptide (Pro3) cleavage by PLpro, 10 min pre-incubation, slope over 20 min, normalised to no-compound control; settings: low concentration screen, read-out: % of control remaining
[2] = biological target: T1, SARS-CoV-2 PLpro (nsp3 1564–1878); assay: biochemical; design: FRET-quenched peptide (Pro3) cleavage by PLpro, 10 min pre-incubation, slope over 20 min, normalised to no-compound control; settings: high concentration screen, read-out: % of control remaining

COc1cc2c(cc1OC(C)C)[C@H](c1ccc(Cl)cc1)N(c1ccc(N(C)C[C@H]3CC[C@H](N4CCN(C)C(=O)C4)CC3)cc1)C(=O)C2 [NVP-CGM097]
remaining activity at 1.25 µM ([1]; Well no.=6974): 95.7% | remaining activity at 3.75 µM ([2]; Well no.=6974): 94.5%

CC#C[C@]1(O)CC[C@H]2[C@@H]3CCC4=CC(=O)CCC4=C3[C@@H](c3ccc(N(C)C)cc3)C[C@@]21C [Mifepristone]
remaining activity at 1.25 µM ([1]; Well no.=795): 103% | remaining activity at 1.25 µM ([1]; Well no.=2206): 93.5% | remaining activity at 1.25 µM ([1]; Well no.=6285): 97.9% | remaining activity at 3.75 µM ([2]; Well no.=795): 96.3% | remaining activity at 3.75 µM ([2]; Well no.=2206): 97.2% | remaining activity at 3.75 µM ([2]; Well no.=6285): 99.7%

COC(=O)N[C@H](C(=O)N[C@@H](Cc1ccccc1)[C@@H](O)CN(Cc1ccc(-c2ccccn2)cc1)NC(=O)[C@@H](NC(=O)OC)C(C)(C)C)C(C)(C)C [Atazanavir]
remaining activity at 1.25 µM ([1]; Well no.=1918): 97.5% | remaining activity at 3.75 µM ([2]; Well no.=1918): 95.7%

CC(C)(O)c1ccccc1CC[C@@H](SCC1(CC(=O)O)CC1)c1cccc(/C=C/c2ccc3ccc(Cl)cc3n2)c1 [Montelukast (sodium)]
remaining activity at 1.25 µM ([1]; Well no.=6325): 105% | remaining activity at 3.75 µM ([2]; Well no.=6325): 98%

COc1cc2oc(-c3ccc(O)c(O)c3)cc(=O)c2c(O)c1OC [2-(3,4-dihydroxyphenyl)-5-hydroxy-6,7-dimethoxy-4H-chromen-4-one]
remaining activity at 1.25 µM ([1]; Well no.=5979): 97% | remaining activity at 3.75 µM ([2]; Well no.=5979): 93.4%

CC(C)n1nc(-c2ccc3oc(N)nc3c2)c2c(N)ncnc21 [INK 128 (MLN0128)]
remaining activity at 1.25 µM ([1]; Well no.=5133): 98.6% | remaining activity at 3.75 µM ([2]; Well no.=5133): 104%

NC(CCCP(=O)(O)O)C(=O)O (racemic)
remaining activity at 1.25 µM ([1]; Well no.=65): 103% | remaining activity at 3.75 µM ([2]; Well no.=65): 97.5%

Cc1ccc(-c2n[nH]c3c2C(c2cccc(O)c2)N(c2ccc(C(=O)O)cc2)C3=O)cc1 (stereo not drawn) [CID 16020046]
remaining activity at 1.25 µM ([1]; Well no.=7821): 96.2% | remaining activity at 3.75 µM ([2]; Well no.=7821): 102%

C[C@]1(Cn2ccnn2)[C@H](C(=O)O)N2C(=O)C[C@H]2S1(=O)=O [Tazobactam]
remaining activity at 1.25 µM ([1]; Well no.=7934): 97.1% | remaining activity at 3.75 µM ([2]; Well no.=7934): 103%

CO[C@@H](C[C@@H]1CC[C@@H](C)[C@](O)(C(=O)C(=O)N2CCCC[C@H]2C(=O)O)O1)/C(C)=C/C=C/C=C/[C@@H](C)C[C@@H](C)C(=O)[C@H](OC)[C@H](O)/C(C)=C/[C@@H](C)C(=O)/C=C/[C@H](C)C[C@@H]1CC[C@@H](O)[C@H](OC)C1 [Seco Rapamycin (sodium salt)]
remaining activity at 1.25 µM ([1]; Well no.=7642): 97.4% | remaining activity at 3.75 µM ([2]; Well no.=7642): 95.9%

O=C(NC(Cc1cc(=O)[nH]c2ccccc12)C(=O)O)c1ccc(Cl)cc1 (stereo not drawn) [Rebamipide]
remaining activity at 1.25 µM ([1]; Well no.=2197): 99.1% | remaining activity at 1.25 µM ([1]; Well no.=6992): 95.1% | remaining activity at 3.75 µM ([2]; Well no.=2197): 98.5% | remaining activity at 3.75 µM ([2]; Well no.=6992): 98.9%

NC1(c2ccc(-c3nc4ccn5c(=O)[nH]nc5c4cc3-c3ccccc3)cc2)CCC1 [MK-2206 2HCl]
remaining activity at 1.25 µM ([1]; Well no.=4625): 102% | remaining activity at 3.75 µM ([2]; Well no.=4625): 102%

CCCCCCOC(=O)[C@]1(O)C[C@@H]2O[C@@]1(C)n1c3ccccc3c3c4c(c5c6ccccc6n2c5c31)C(=O)NC4 [KT5720]
remaining activity at 1.25 µM ([1]; Well no.=2481): 105% | remaining activity at 3.75 µM ([2]; Well no.=2481): 109%

Clc1ccc(Cn2c(CN3CCCC3)nc3ccccc32)cc1 [Clemizole (hydrochloride)]
remaining activity at 1.25 µM ([1]; Well no.=6558): 93.9% | remaining activity at 3.75 µM ([2]; Well no.=6558): 93.2%

O=C(O)c1ccc(O)c2ncccc12 [IOX1]
remaining activity at 1.25 µM ([1]; Well no.=5529): 102% | remaining activity at 3.75 µM ([2]; Well no.=5529): 104%

C=C1CC[C@H](O)C/C1=C/C=C1\CCC[C@]2(C)[C@@H]([C@H](C)CCCC(C)C)CC[C@@H]12 [Vitamin D3 (Cholecalciferol)]
remaining activity at 1.25 µM ([1]; Well no.=4702): 99.7% | remaining activity at 3.75 µM ([2]; Well no.=4702): 100%

CS(=O)(=O)N1CCc2c(-c3cnc(N)nc3)nc(N3CCOCC3)nc21 [CH5132799]
remaining activity at 1.25 µM ([1]; Well no.=5348): 95.8% | remaining activity at 3.75 µM ([2]; Well no.=5348): 96%

NC(=O)COc1c(F)cc(SCCNS(=O)(=O)c2ccccc2)cc1F
remaining activity at 1.25 µM ([1]; Well no.=5925): 94.7% | remaining activity at 3.75 µM ([2]; Well no.=5925): 93.7%

Cc1cc(C)c(S(=O)(=O)Nc2cccc(C(F)(F)F)c2)c(C)c1 [m -3M3FBS]
remaining activity at 1.25 µM ([1]; Well no.=5841): 99.6% | remaining activity at 3.75 µM ([2]; Well no.=5841): 98.2%

O=c1ccn([C@@H]2O[C@H](COP(=O)(O)O)[C@@H](O)[C@H]2O)c(=O)[nH]1 [Uridine 5'-monophosphate]
remaining activity at 1.25 µM ([1]; Well no.=7495): 103% | remaining activity at 1.25 µM ([1]; Well no.=8889): 101% | remaining activity at 3.75 µM ([2]; Well no.=7495): 103% | remaining activity at 3.75 µM ([2]; Well no.=8889): 99%

O=c1[nH]c(=O)n([C@H]2C[C@H](O)[C@@H](CO)O2)cc1Br [5-Bromo-2'-deoxyuridine]
remaining activity at 1.25 µM ([1]; Well no.=269): 95.6% | remaining activity at 3.75 µM ([2]; Well no.=269): 98.4%

CO/N=C(\C(=O)N[C@@H]1C(=O)N2C(C(=O)O)=C(COC(C)=O)CS[C@H]12)c1csc(N)n1 [Cefotaxime sodium]
remaining activity at 1.25 µM ([1]; Well no.=186): 93.2% | remaining activity at 3.75 µM ([2]; Well no.=186): 94.1%

Cc1cccc(-c2[nH]c(C(C)(C)C)nc2-c2ccc3nccnc3c2)n1 [SB 525334]
remaining activity at 1.25 µM ([1]; Well no.=4901): 99.5% | remaining activity at 3.75 µM ([2]; Well no.=4901): 99.1%

CCCOc1ccccc1-c1nc2[nH]nnc2c(=O)[nH]1 [Zaprinast]
remaining activity at 1.25 µM ([1]; Well no.=1342): 99.6% | remaining activity at 1.25 µM ([1]; Well no.=2188): 92% | remaining activity at 3.75 µM ([2]; Well no.=1342): 101% | remaining activity at 3.75 µM ([2]; Well no.=2188): 95.6%

O=C1O[C@H]([C@@H](O)CO)C(O)=C1O [Ascorbic acid]
remaining activity at 1.25 µM ([1]; Well no.=4039): 99.8% | remaining activity at 3.75 µM ([2]; Well no.=4039): 99.5%

C=CCN1CC[C@]23c4c5ccc(O)c4O[C@H]2/C(=N/NC(=O)c2ccccc2)CC[C@@]3(O)[C@H]1C5 [Naloxone benzoylhydrazone]
remaining activity at 1.25 µM ([1]; Well no.=798): 93.2% | remaining activity at 3.75 µM ([2]; Well no.=798): 99.5%

Cc1ccc(-c2ncc(Cl)cc2-c2ccc(S(C)(=O)=O)cc2)cn1 [Etoricoxib]
remaining activity at 1.25 µM ([1]; Well no.=1925): 106% | remaining activity at 3.75 µM ([2]; Well no.=1925): 106%

CCn1c2ccccc2c2cc(CNC)ccc21 [PhiKan 083]
remaining activity at 1.25 µM ([1]; Well no.=6830): 93.5% | remaining activity at 3.75 µM ([2]; Well no.=6830): 93.9%

CCC(=O)c1cc(-c2ccc(Cl)cc2)n(-c2ccc(S(N)(=O)=O)cc2)c1C [A-867744]
remaining activity at 1.25 µM ([1]; Well no.=8320): 96.8% | remaining activity at 3.75 µM ([2]; Well no.=8320): 94%

O=C(Cc1ccc(Cl)c(Cl)c1)OCCN1CCCC1 [AC 915 oxalate]
remaining activity at 1.25 µM ([1]; Well no.=61): 104% | remaining activity at 3.75 µM ([2]; Well no.=61): 102%

CCOC(=O)[C@H](CCc1ccccc1)N[C@@H](C)C(=O)N1Cc2cc(OC)c(OC)cc2C[C@H]1C(=O)O [Moexipril (hydrochloride)]
remaining activity at 1.25 µM ([1]; Well no.=8028): 98.4% | remaining activity at 3.75 µM ([2]; Well no.=8028): 97.8%
